Test [1] relates to IL-1β secretion from human whole blood. As to the kind of experiment: Inhibition of IL-1β secretion from whole blood. Type of test: cell-based. The following applies: human whole blood diluted 1:2, LPS 5 ng/ml, 18 hours, ELISA. On the procedure: Human blood is freshly drawn from healthy donors and diluted 1:2 in PBS. To 500 μl of diluted blood […] of prediluted test compound in RPMI medium and […] LPS (5 ng/ml final concentration on the plate) are added (LPS, Serotype 0111:B4, Sigma L3012). After stimulation for 18 hours supernatants are collected and assayed for IL-1β levels using the appropriate ELISA kit (R&D systems).
In general terms: An ELISA detects its analyte on a solid surface through an enzyme-linked reagent.

Another test deals with rat cortical neurons. Nature of the test: Hypoxia-induced apoptosis of rat cortical neurons. Type of test: cell-based, Wistar rat. The following applies: Cortical neurone, 95% N2/5% CO2, Cell Death Detection ELISA (DNA fragmentation). On the procedure:
Cortical neurons are dissociated from Wistar rat embryos (E17) by a modification of the procedure of Rogers et al. 1997, Brain Res. Bulletin, 44:131. Briefly, cerebral cortices are isolated aseptically from 15-20 Wistar rat embryos. A cell suspension is prepared by mincing the cerebral cortices and digesting them with papain. Cells are washed with ovomucoid enzyme inhibitor and DNaseI and plated onto Poly-D lysine coated plates in high glucose DMEM containing 10% heat-inactivated fetal calf serum, L-glutamine, penicillin and streptomycin. The yield of neurons is […] per embryo and they are 80-90% viable as assessed by Trypan blue exclusion.
The neurons are cultured in complete medium at 37° C. in a normal atmosphere for 48 hours prior to the hypoxia experiments. For hypoxia, the normal cell medium is replaced by oxygen-depleted serum-free medium. Cells are incubated in an atmosphere of 95% N2/5% CO2 for various lengths of time. Compounds are dissolved in DMSO at 100 mM then diluted in medium and added to the culture from time=0. The level of apoptosis is measured using a Cell Death Detection ELISA kit (Roche) which detects DNA fragmentation. Plates are read at 405 nm. Controls included cells cultured in aerobic conditions in serum-containing medium (+serum) and cells cultured in aerobic conditions in serum-deprived medium (−serum).

For a further test, the system named is Jurkat E6.1 cells. As to the kind of experiment: Anti-Fas induced apoptosis assay. Type of test: cell-based. The following applies: Homo sapiens, anti-Fas antibody CH-11 10 ng/ml, 16-18 hrs, DNA fragmentation. From the text:
Cellular apoptosis may be induced by the binding of Fas ligand (FasL) to its receptor, CD95 (Fas). CD95 is one of a family of related receptors, known as death receptors, which can trigger apoptosis in cells via activation of the caspase enzyme cascade. The process is initiated by the binding of the adapter molecule FADD/MORT-1 to the cytoplasmic domain of the CD-95 receptor-ligand complex. Caspase-8 then binds FADD and becomes activated, initiating a cascade of events that involve the activation of downstream caspases and subsequent cellular apoptosis. Apoptosis can also be induced in cells expressing CD95 e.g., the Jurkat E6.1 T cell lymphoma cell line, using an antibody, rather than FasL, to crosslink the cell surface CD95. Anti-Fas-induced apoptosis is also triggered via the activation of caspase-8. This provides the basis of a cell based assay to screen compounds for inhibition of the caspase-8-mediated apoptotic pathway.
Jurkat E6.1 cells are cultured in complete medium consisting of RPMI-1640 (Sigma No)+10% foetal calf serum (Gibco BRL No. 10099-141)+2 mM L-glutamine (Sigma No. G-7513). The cells are harvested in log phase of growth. 100 ml of cells at 5-8×10^5 cells/ml are transferred to sterile 50 ml Falcon centrifuge tubes and centrifuged for 5 minutes at 100×g at room temperature. The supernatant is removed and the combined cell pellets resuspended in 25 ml of complete medium. The cells are counted and the density adjusted to 2×10^6 cells/ml with complete medium.
The test compound is dissolved in dimethyl sulfoxide (DMSO)(Sigma No. D-2650) to give a 100 mM stock solution. This is diluted to 400 μM in complete medium, then serially diluted in a 96-well plate prior to addition to the cell assay plate.
100 μl of the cell suspension ([…]) is added to each well of a sterile 96-well round-bottomed cluster plate (Costar No. 3790). 50 μl of compound solution at the appropriate dilution and 50 μl of anti-Fas antibody, clone CH-11 (Upstate, Cat No. 1 544 675) at a final concentration of 10 ng/ml, are added to the wells. Control wells are set up minus antibody and minus compound but with a serial dilution of DMSO as vehicle control. The plates are incubated for 16-18 hrs at 37° C. in 5% CO2 and 95% humidity.
Apoptosis of the cells is measured by the quantitation of DNA fragmentation using a ‘Cell Death Detection Assay’ from Roche diagnostics, No. 1544 675. After incubation for 16-18 hrs the assay plates are centrifuged at 100×g at room temperature for 5 minutes. 150 μl of the supernatant are removed and replaced by 150 μl of fresh complete medium. The cells are then harvested and 200 μl of the lysis buffer supplied in the assay kit are added to each well. The cells are triturated to ensure complete lysis and incubated for 30 minutes at 4° C. The plates are then centrifuged at 1900×g for 10 minutes and the supernatants diluted 1:20 in the incubation buffer provided. 100 μl of this solution is then assayed according to the manufacturer's instructions supplied with the kit. OD405 nm is measured 20 minutes after addition of the final substrate in a SPECTRAmax Plus plate reader (Molecular Devices). OD405 nm is plotted versus compound concentration and the IC50 values for the compounds are calculated using the curve-fitting program SOFTmax Pro (Molecular Devices) using the four parameter fit option.

Consider `CC[C@@H](C(=O)N[C@@H](CC(=O)O)C(=O)COc1c(F)c(F)cc(F)c1F)n1cccc(NC(=O)OC)c1=O` [Compound 17, (S,S)-3-[2-(3-Methoxycarbonylamino-2-oxo-2H-pyridin-1-yl)-butyrylamino]-4-oxo-5-(2,3,5,6-tetrafluoro-phenoxy)-pentanoic acid], for which the IC50 (in general, the concentration that inhibits the measured activity by half) in test [1] was below 500 nM; in the test on rat cortical neurons it was below 1000 nM; with Jurkat E6.1 cells it was below 500 nM.

As for `CC[C@@H](C(=O)N[C@@H](CC(=O)O)C(=O)COc1c(F)c(F)cc(F)c1F)n1cccc(NS(=O)(=O)CC)c1=O` [Compound 18, (S,S)-3-[2-(3-Ethanesulfonylamino-2-oxo-2H-pyridin-1-yl)-butyrylamino]-4-oxo-5-(2,3,5,6-tetrafluoro-phenoxy)-pentanoic acid], the IC50 is 500 to 5000 nM in test [1], 1000 to 10000 nM in the test with rat cortical neurons and below 500 nM with Jurkat E6.1 cells.

For the molecule `CCCS(=O)(=O)Nc1cccn([C@@H](CC)C(=O)N[C@@H](CC(=O)O)C(=O)COc2c(F)c(F)cc(F)c2F)c1=O` [Compound 19, (S,S)-4-Oxo-3-{2-[2-oxo-3-(propane-1-sulfonylamino)-2H-pyridin-1-yl]-butyrylamino}-5-(2,3,5,6-tetrafluoro-phenoxy)-pentanoic acid], the IC50 was 500 to 5000 nM in test [1], 1000 to 10000 nM in the test on rat cortical neurons and below 500 nM with Jurkat E6.1 cells.

In the case of `CC[C@@H](C(=O)N[C@@H](CC(=O)O)C(=O)COc1c(F)c(F)cc(F)c1F)n1cc(C(F)(F)F)cc(NS(=O)(=O)CC)c1=O` [Compound 22, (S,S)-3-[2-(3-Ethanesulfonylamino-2-oxo-5-trifluoromethyl-2H-pyridin-1-yl)-butyrylamino]-4-oxo-5-(2,3,5,6-tetrafluoro-phenoxy)-pentanoic acid], the values for the IC50 (in test [1]; with rat cortical neurons; in the test with Jurkat E6.1 cells) were 500 to 5000 nM, below 1000 nM and below 500 nM, respectively.

On to `CCC(=O)Nc1cccn([C@@H](CC)C(=O)NC(CC(=O)O)C(=O)CF)c1=O` (stereo partly drawn) [Compound 29, (S)-5-Fluoro-4-oxo-3-[2-(2-oxo-3-propionylamino-2H-pyridin-1-yl)-butyrylamino]-pentanoic acid], for which the figures for the IC50 (in test [1]; in the test on rat cortical neurons; in the test on Jurkat E6.1 cells) were below 500 nM, 1000 to 10000 nM and below 500 nM, respectively.

With `CCC(=O)Nc1cccn([C@@H](CC(C)C)C(=O)NC(CC(=O)O)C(=O)CF)c1=O` (stereo partly drawn) [Compound 36, (S)-5-Fluoro-3-[4-methyl-2-(2-oxo-3-propionylamino-2H-pyridin-1-yl)-pentanoylamino]-4-oxo-pentanoic acid], the values for the IC50 (in test [1]; in the test with rat cortical neurons; in the test on Jurkat E6.1 cells) were 500 to 5000 nM, 1000 to 10000 nM and 500 to 2000 nM, respectively.

The values are drawn from patent US7960415B2, “Caspase inhibitors and uses thereof” (Vertex Pharmaceutical Incoporated, priority 2003, dated 2011).
